Data from patent US20090325208A1 (priority 2006, published 2009).

Experiments:
purified 20S proteasome = purified 20S proteasome (Homo sapiens, UniProt P28074); conditions: read-out: IC50 against purified 20S proteasome; cited from earlier work
[1] = test system: S. tropica 20S proteasome; assay: 20S Proteasome Activity Assay (Chemicon), cleavage of LLVY-AMC; type: biochemical; conditions: preliminary experiments, FIG. 19
Excerpt: (§1) Inhibition of the 20S proteasome will also be measured 20S for all new salinosporamides. The CHEMICON Proteasome Activity Assay Kit by Chemicon International provides a system that is designed to detect the chymotrypsin-like activity of the yeast 20S proteasome through the release of the fluorophore AMC (7-amino-4-methylcoumarin) from the specific substrate Suc-LLVY-AMC after cleavage. AMC can be detected using a fluorometer with a 380 nm excitation and a 460 nm emission filter. For inhibitor screening, the test sample is added to the assay plate and fluorescence read, looking for a reduction in proteasome activity.
(§2) The ubiquitin-proteasome pathway involves the 26S proteasome, which is formed by the barrel-shaped 20S proteasome (about 700 kDa) and two 19S (about 700 kDa) regulatory complexes on each end of the 20S proteasome. […] Cleavage of the free flourophore, 7-Amino-4-methylcoumarin (AMC) from LLVY can be detected and quantified using a 380/460 nm filter set in a flourmeter. […]
(§3) The present invention describes the biosynthesis of SalJ (FIG. 16). […] Yet, the assembled-recombinant 20S proteasome with the SalJ β-subunit (far right two bars) confers resistance to at least SalA as there was no substantial measurable difference in the level of fluorescence of the free AMC (FIG. 19) in the presence or absence of SalA. […]

yeast 20S proteasome = target: T1, yeast 20S proteasome (Saccharomyces cerevisiae, UniProt P30656); assay: as above; type: biochemical; conditions: preliminary experiments, FIG. 19
T1 construct: minus the N-terminal propeptide that is cleaved off autocatalytically during assembly; purchased Chemicon International
Excerpt: as §1, §2, §3

[2] = test system: assembled 20S proteasome from recombinant subunits containing the SalJ β-subunit; assay: as above; type: biochemical, S. tropica; conditions: assembled recombinant 20S proteasome with SalJ β-subunit (Ala→Val at residue 49); FIG. 19
Excerpt: as §1, §2, §3

[3] = test system: multiple myeloma cells that have become refractory to bortezomib therapy; conditions: cited from earlier work
[4] = test system: colon, pancreatic, and lung cancers; conditions: cited from earlier work
animal tumor models = conditions: cited from earlier work
[5] = target: T2, 3-hydroxy-3-methylglutaryl-CoA synthase (HMGS) (Homo sapiens, UniProt Q01581); conditions: cited from earlier work
T2 sequence (Q01581 1-520): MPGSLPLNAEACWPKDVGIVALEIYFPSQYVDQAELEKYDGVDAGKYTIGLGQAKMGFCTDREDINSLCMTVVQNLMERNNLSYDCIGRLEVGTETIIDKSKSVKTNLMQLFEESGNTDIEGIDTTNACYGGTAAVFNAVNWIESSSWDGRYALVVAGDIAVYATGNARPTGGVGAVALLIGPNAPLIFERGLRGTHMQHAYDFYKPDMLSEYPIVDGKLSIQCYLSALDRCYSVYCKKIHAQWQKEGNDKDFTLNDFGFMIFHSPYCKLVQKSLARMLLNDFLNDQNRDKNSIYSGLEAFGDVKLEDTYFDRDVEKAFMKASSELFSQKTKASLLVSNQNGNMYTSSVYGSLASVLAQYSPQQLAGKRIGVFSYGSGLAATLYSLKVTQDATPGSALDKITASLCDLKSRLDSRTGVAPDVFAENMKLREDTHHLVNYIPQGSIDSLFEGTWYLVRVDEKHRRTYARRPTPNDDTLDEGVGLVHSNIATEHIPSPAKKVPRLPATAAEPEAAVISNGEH

## CC(C)[C@H](O)[C@@]12NC(=O)[C@H](C)[C@@H]1OC2=O [omuralide, clasto-lactacystin-β-lactone, reference compound]
Purified 20S proteasome
  IC50: 49 nM

## C[C@@]12OC(=O)[C@]1([C@@H](O)[C@@H]1C=CCCC1)NC(=O)[C@@H]2CCCl [salinosporamide A]
[1]
  inhibition of 20S proteasome (fluorescence of free AMC): inhibited
Yeast 20S proteasome
  inhibition of 20S proteasome (fluorescence of free AMC): inhibited
[2]
  inhibition of 20S proteasome (fluorescence of free AMC): not inhibited
[3]
  induction of apoptosis: induces apoptosis
[4]
  efficacy in animal models: efficacious
Animal tumor models
  oral activity: orally active
  survival: prolongs survival
  tolerability: well tolerated

## CC(=C\C(=O)O)/C=C(\C)C[C@H](C)CCCC[C@H]1OC(=O)[C@@H]1CO [F-244]
[5]
  IC50: 35 nM
